From paper PMC7217877, “N-AS-triggered SPMs are direct regulators of microglia in a model of Alzheimer’s disease” (Nature Communications, 2020)
Where “and” joins values, the source holds several entries; their conditions need not be identical. Equal values may be shown once.

Key:
Format in all cases: in vivo, mouse
[1] = system: APP/PS1 mice; test: mRNA levels of NEP, MMP9, IDE, CD36 in microglia (Supplementary Fig 5c); parameters: CD36 mRNA level in microglia / NEP mRNA level in microglia / MMP9 mRNA level in microglia / IDE mRNA level in microglia: scale not given here
Description: Transgenic mouse lines over-expressing the hAPP695swe (APP) and presenilin-1M146V (PS1) mutations were originated from GlaxoSmithKline (Harlow, UK)[32] and maintained as described previously. We purchased 5×FAD mice from Jackson Labs (Stock number. 34840-JAX). Because APP/PS1 and 5xFAD mice show sex differences in disease progression, we used only male mice. To examine possible therapeutic effect of N-AS and aspirin in APP/PS1 mice, the N-AS (30 mg kg^−1, Sigma-Aldrich, 01912) was injected daily s.c. for 8 weeks to 7-months-old APP/PS1 mice until the age of 9 months, and aspirin (2 mg kg^−1, Sigma-Aldrich, A5376)[33] was administrated orally to 7-months-old APP/PS1 mice for 8 weeks. Also, to confirm possible therapeutic efficacy of N-AS in 5×FAD, the N-AS (30 mg kg^−1, Sigma-Aldrich, 01912) was injected daily s.c. for 4 weeks to 3-months-old 5×FAD mice until the age of 4 months. Block randomization method was used to allocate the animals to experimental groups. To eliminate the bias, we were blinded in experimental progress such as data collection and data analysis. Mice were housed at temperature of 22 °C and a 12 h day/12 h night cycle with free access to tap water and food pellets. All protocols were approved by the Kyungpook National University Institutional Animal Care and Use Committee.
For total RNA extraction from the microglia derived from WT, APP/PS1, APP/PS1 mice treated with N-AS, and APP/PS1 mice treated with aspirin, the cells were isolated from the cortex of WT, APP/PS1, APP/PS1 mice treated with N-AS, or aspirin using the methods described above. Total RNA was isolated using the kit components according to the manufacturer’s instructions (RNeasy mini kit, 74134, QIAGEN). cDNA was synthesized from 5 μg of total RNA using a commercially available kit (Takara). Quantitative real-time PCR was performed using a Corbett research RG-6000 real-time PCR instrument. Primers are described in Supplementary Table 5.

[2] = system: APP/PS1 mice; test: RNA seq of microglia from treated mice (Fig 4f-i); conditions: N-AS-treated vs vehicle APP/PS1
Description: Transgenic mouse lines over-expressing the hAPP695swe (APP) and presenilin-1M146V (PS1) mutations were originated from GlaxoSmithKline (Harlow, UK)[32] and maintained as described previously. We purchased 5×FAD mice from Jackson Labs (Stock number. 34840-JAX). Because APP/PS1 and 5xFAD mice show sex differences in disease progression, we used only male mice. To examine possible therapeutic effect of N-AS and aspirin in APP/PS1 mice, the N-AS (30 mg kg^−1, Sigma-Aldrich, 01912) was injected daily s.c. for 8 weeks to 7-months-old APP/PS1 mice until the age of 9 months, and aspirin (2 mg kg^−1, Sigma-Aldrich, A5376)[33] was administrated orally to 7-months-old APP/PS1 mice for 8 weeks. […]
Total RNA was isolated in microglia derived from WT, APP/PS1, and APP/PS1 mice treated with N-AS using Trizol reagent (Invitrogen). RNA quality was assessed by Agilent 2100 bioanalyzer using the RNA 6000 Nano Chip (Agilent Technologies, Amstelveen, The Netherlands), and RNA quantification was performed using ND-2000 Spectrophotometer (Thermo Inc., DE, USA). […] Quantification was performed using the library quantification kit using a StepOne Real-Time PCR System (Life Technologies, Inc., USA). […] Then, total RNA-Seq reads were mapped using TopHat software tool in order to obtain bam file (alignment file). […]

[3] = system: APP/PS1 mice; test: microglial recruitment to Aβ plaques (Iba1/ThioS colocalization, Fig 5a); conditions: APP/PS1 + N-AS; cortex; individual values
Description: Thioflavin S (Sigma-Aldrich) staining was carried out according to previously described procedures. We used 6E10 (mouse, 1:100, Signet, SIG39300), anti-20G10 (mouse, 1:1000, provided by D. R. Howlett, GlaxoSmithKline, Harlow, Essex, UK) for Aβ42, anti-G30 (rabbit, 1:1000, provided by D. R. Howlett) for Aβ40, SMA (mouse, 1:400, Sigma-Aldrich, A2547), AT8 (mouse, 1:500, Thermo Fisher Scientific, MN1020), Caspase-3 (mouse, 1:200, Novus Biologicals, NB100-56708), ac-S565 (rabbit, 1:100), COX2 (mouse, 1:250, Thermo Fisher Scientific, 35-8200), Iba1 (rabbit, 1:500, Wako, 019-19941 and goat, Abcam, ab5076), NeuN (mouse, 1:500, Millipore, MAB177), GFAP (rabbit, 1:500, Dako, N1506 and chicken, 1:500, Abcam, ab4674), and Lamp1 (mouse, 1:200, Abcam, ab24170). The sections were analyzed with a laser-scanning confocal microscope (FV3000; Olympus) or with a BX51 microscope (Olympus). MetaMorph software (Molecular Devices) was used to quantification. Three-dimensional reconstruction of microglia was recorded and analyzed using IMARIS software (Bitplane)[11]. For the analysis of age-dependent microglial COX2^+ CX3CR1^+ cells in WT and APP/PS1 mice, COX2 (rabbit, 1:100, Abcam, ab15191) and CX3CR1 (mouse, 1:100, BioLegend, 149008) antibody were used and the images were acquired on Alexa 488 and APC Channel with performed using Operetta CLS and Analysis Software 4.5 (Perkin-Elmer). […]

[4] = APP/PS1 + N-AS, individual values, sFig 5c

For `CCCCCCCCCCCCC/C=C/[C@@H](O)[C@H](CO)NC(C)=O` [N-AS, N-((2S,3R,E)-1,3-Dihydroxyoctadec-4-en-2-yl)acetamide], which “CD36 mRNA level in microglia” value [1, 4] is on record?
Its value is 0.97 and 0.75 and 0.78 and 0.69 and 0.81 and 0.87 and 0.79 and 0.61.

And the “IDE mRNA level in microglia” value [1, 4]?
The value was 0.68 and 0.56 and 0.55 and 0.48 and 0.82 and 0.81 and 0.71 and 0.78 and 0.77.

And the “MMP9 mRNA level in microglia” value [1, 4]?
The value was 0.87 and 0.47 and 0.35 and 0.38 and 0.69 and 0.52 and 0.57 and 1.05 and 0.8.

And the “NEP mRNA level in microglia” value [1, 4]?
The value was 0.96 and 0.5 and 0.52 and 0.57 and 0.56 and 0.59 and 0.64 and 0.85 and 0.88.

What about the CD36 expression ([1]; APP/PS1 treated with N-AS) of the same molecule?
Its CD36 expression is “enhanced”.

What about the “expression of Aβ degrading enzymes (NEP, MMP9, IDE)” value ([1]; WT, APP/PS1 vehicle, APP/PS1 N-AS) of the same molecule?
Its value is “remained unchanged between the groups”.

What about the “microglial gene expression pattern (RNA seq)” value [2] of the same molecule?
Its value is “upregulation of several reactive microglial genes”.

What about the “Aβ containing /Iba1-positive cells per plaque” value [3] of the same molecule?
The value was 7.5498 and 5.551 and 5.112 and 5.2638 and 4.818 and 7.514.

And the “Aβ-positive Microglia/plaque” value [3]?
The value was 27.3068 and 32.6682 and 21.5669 and 18.8144 and 22.2826 and 28.6878.
